Measured values taken from US20250290915A1, “METHOD FOR PREDICTING RESPONSIVENESS TO THERAPY” (CANCERTAIN LIMITED, priority 2022, published 2025).

Experiments:
Assay type in all cases: cell-based, human
[1] = tested on: Circulating tumour cells (CTCs) from a patient with GI cancer (Cholangio Carcinoma, stage 4); experiment: Drug response score assay on blood sample, Example 9; parameters: key to Drug response score from blood sample, conc. 1 / Drug response score from blood sample, conc. 2 / Drug response score from blood sample, conc. 3 / Drug response score from blood sample, conc. 4: normalized drug response metric per Gupta et al. 2020; settings: for effectiveness on Circulating Tumour Cells under laboratory conditions: GI cancer (Cholangio Carcinoma) blood sample; for Drug response score from blood sample, conc. 1: conc. 1 of each drug as in Table 27; for Drug response score from blood sample, conc. 1 / Drug response score from blood sample, conc. 2 / Drug response score from blood sample, conc. 3 / Drug response score from blood sample, conc. 4: t96h; for Drug response score from blood sample, conc. 2: conc. 2 of each drug as in Table 27; for Drug response score from blood sample, conc. 3: conc. 3 of each drug as in Table 27; for Drug response score from blood sample, conc. 4: conc. 4 of each drug as in Table 27; for Drug sensitivity as calculated by the assay, Blood: interpretation based on Drug Response Scores; for Drug response score from blood sample, conc. 1 / Drug response score from blood sample, conc. 2 / Drug response score from blood sample, conc. 3 / Drug response score from blood sample, conc. 4 / Drug sensitivity as calculated by the assay, Blood: blood sample
Procedure: (§1) CD45^+ cells and circulating tumour cells (CTCs) were isolated from a blood sample provided by each subject.
(§2) CD45 separation was performed by adding human CD45 microbeads (50 μl/ml blood), incubating for 15 minutes at 4° C. and then processing using an AutoMACS machine. This separates the blood sample into CD45^+ and CD45^−cells in 2 separate falcons. The falcon tubes are then centrifuged at 1200 rpm for 5 minutes.
The supernatant was removed from the CD45^+falcon tube, and the cells resuspended in DMEM with 2 μl Cell Tox, 2 μl MT and 2 μl MT. 20 μl of the resuspended CD45^+ cells was then plated in each well which will contain an immunotherapy treatment.
(§3) The supernatant was removed from the CD45^−falcon tube, and the CD45^−cells contacted with 100 μl of FcR block and 100 μl of CD326 (EpCAM) MicroBeads, followed by incubation at […] 4° C. for 30 minutes. The CD45^−cells were then processed using an AutoMACS machine to separate the EpCAM positive and negative cells into 2 separate falcon tubes. The EpCAM-cells were discarded. The supernatant was removed from the EpCAM^+ cells, and the cells resuspended in DMEM with 2 μl Cell Tox, 2 μl MT and 2 μl MT. 20 μl of the resuspended pellet was then added to all sample wells excluding a blank. After all wells are added to, a cell count was conducted on the […] to determine the number of circulating tumour cells (CTCs).
(§4) The different cell types were each divided equally into populations, depending on the number of drugs/concentrations to be tested and plated on a cell-culture plate pre-coated with a scaffold of polycaprolactone (PCL) electrospun fibres and incubated at 37° C., 5% CO2, for 5 to (typically 10) minutes to facilitate cell attachment. After attachment, an initial imaging step was carried out using the RealTime-Glo™ MT assay from Promega (Catalogue No. G9711)) and the CellTox™ Green Cytotoxicity Assay (Promega, Catalogue No. G8741), carried out according to manufacturer's instructions. Following this initial imagining, the immunotherapeutic and/or chemotherapeutic agents were added to the cell populations as indicated below. After 10 minutes, the imagining step was repeated. The cell populations were then incubated at 37° C., 5% CO2 for 48 hours. The imaging step was then repeated. The cell populations were then re-dosed with the same immunotherapeutic and/or chemotherapeutic agents as indicated below, and incubated at 37° C., 5% CO2 for a further 48 hours. After this second 48 hour incubation, the imagining step was repeated for a final time.
(§5) At the end of this culture period, dose response scores were calculated using a normalized drug response metric as described in Gupta et al. (Communications Biology volume 3, Article number: 42 (2020), https://doi.org/10.1038/s42003-020-0765-z). The start readout for a given immunotherapeutic or chemotherapeutic agent at a given concentration was the to readout for said immunotherapeutic or chemotherapeutic agent at a specified concentration. The end readout for a given immunotherapeutic or chemotherapeutic agent at a given concentration was the final timepoint reading (t96h) for said immunotherapeutic or chemotherapeutic agent at a specified concentration.
(§6) The positive control start readout for a given drug/concentration was the to readout for the corresponding drug at a specified concentration. The positive control end readout for the corresponding drug at a specified concentration was the final timepoint reading (t96h) for the corresponding blank well.
(§7) The negative control start and end readouts for a given immunotherapeutic or chemotherapeutic agent at a given concentration were the to and final timepoint reading (t96h) respectively for blank cell or blank immuno cell well respectively.
The sensitivity or resistance of a subject's cancer to a given immunotherapeutic or chemotherapeutic agent was determined based on the calculated drug response score as shown in Table 2. […]

[2] = tested on: Cancer Cells from tissue sample (CSCs, tumour marker+ cells) of a patient with GI cancer (Cholangio Carcinoma, stage 4); experiment: Drug response score assay on tissue sample, Example 9; settings: for effectiveness on Cancer Cells from tissue sample under laboratory conditions: GI cancer (Cholangio Carcinoma) tissue sample; for Drug response score, conc. 1 / Drug response score, conc. 2 / Drug response score, conc. 3 / Drug response score, conc. 4 / Drug sensitivity as calculated by the assay, Tissue: tissue sample; for Drug response score, conc. 1: conc. 1 per Table 27B: Pem 20, Niv 20, Atez 100, Pacli 0.05, Irino 5, Beva 1 μg/ml, Len 50, 5-FU 250 ng/ml; for Drug response score, conc. 2: conc. 2 per Table 27B: Pem 40, Niv 40, Atez 200, Pacli 0.1, Irino 10, Beva 2 μg/ml, Len 100, 5-FU 500 ng/ml; for Drug response score, conc. 3: conc. 3 per Table 27B: Pem 100, Niv 80, Atez 400, Pacli 0.2, Irino 25, Beva 4 μg/ml, Len 200, 5-FU 1000 ng/ml; for Drug response score, conc. 4: conc. 4 per Table 27B: Pem 160, Niv 160, Atez 800, Pacli 1, Irino 50, Beva 8 μg/ml, Len 400, 5-FU 2000 ng/ml; for Drug sensitivity as calculated by the assay, Tissue: interpretation based on Drug Response Scores
Procedure: Where a tissue sample was provided by each subject, cancer stem cells (CSCs, CD133^+), were isolated from said sample. Tumour marker cells were further isolated from each tissue sample. The remaining cells were designated tumour marker^+ cells.
First, disaggregation of the tissue samples was carried out. Disaggregation was dependent on the size of the tissue sample and the method of retrieval: • EBUS (Endobronchial Ultrasound Scan and Biopsy)—very small fragments of tissue in solution-spun at 1200 rpm for 5 minutes to collect tissue pellet • Bronchoscopy-larger fragments with larger amount of blood vessels • Broncho-lavage-similar to EBUS, spun at 1200 rpm for 5 minutes to collet tissue pellet
Once a pellet of tissue obtained, DMEM added to the tissue pellet and the material forced through a […] Smart strainer. Once a cell suspension was achieved, this was spun at 1200 rpm for 5 minutes and the supernatant removed. The cells were then resuspended to a volume of 60 μl.
20 μl of FcR block and 20 μl of CD133 microbeads were added to the resuspended cells, followed by incubation for 15 minutes at 4° C. The cells were then processed using an AutoMACS machine. This separates the […] into CD133^+ and CD133^− cells in 2 separate falcons. The falcon tubes are then centrifuged at 1200 rpm for 5 minutes.
The supernatant was removed from the CD133+falcon tube, and the cells resuspended in DMEM with 2 μl Cell Tox, 2 μl MT and 2 μl MT. 20 μl of the resuspended […] was then plated in each well which will contain an immunotherapy treatment.
The supernatant was removed from the CD133^− falcon tube, and the CD133^− cells contacted with 40 μl of a tumour separation microbeads cocktail containing microbeads bound to anti-CD31, anti-CD45, anti-Glycophorin-A (Gly-A) and an anti-fibroblast antibody.
This cocktail is used to separate out tumour marker cells using MACS, by separating out CD31^+, CD45^+ and Gly-A^+ cells. In addition, anti-fibroblast antibody-labelled beads are also used. The cocktail is added to the CD133^− falcon tube, followed by incubation for 15 minutes at 4° C. MACS is carried out using an AutoMACS machine. This cells which are not bound by the CD31, CD45, Gly-A and anti-fibroblast antibody beads are the tumour marker^+ cells.
as §4
as §5, with “The end readout for a given immunotherapeutic or chemotherapeutic agent at a given concentration was the final timepoint reading (t96h) for said immunotherapeutic or chemotherapeutic agent at a specified concentration.” left out

[3] = tested on: Circulating Tumour Cells (CTCs) from a patient with head and neck cancer (squamous cell carcinoma); experiment: Drug response score assay on CTCs from blood, Example 6
Procedure: as §1, §2, §3, §4, §5, §6, §7
(§8) The sensitivity or resistance of a subject's cancer to a given immunotherapeutic or chemotherapeutic agent was determined based on the calculated drug response score as shown in Table 2.
Blood samples from a patient with head and neck cancer (squamous cell carcinoma) were received on 11 Mar. 2022 and tested using a 7 drug panel.

[4] = tested on: Circulating Tumour Cells (CTCs) from a patient with colon cancer (sigmoid colon cancer); experiment: Drug response score assay on CTCs from blood, Example 8; parameters: key to Drug response score, conc. 1 / Drug response score, conc. 2 / Drug response score, conc. 3 / Drug response score, conc. 4: normalized drug response metric (Gupta et al. 2020); settings: for Drug response score, conc. 1: conc. 1 of each drug as in Table 24; for Drug response score, conc. 1 / Drug response score, conc. 2 / Drug response score, conc. 3 / Drug response score, conc. 4: CTCs, t96h; for Drug response score, conc. 2: conc. 2 of each drug as in Table 24; for Drug response score, conc. 3: conc. 3 of each drug as in Table 24; for Drug response score, conc. 4: conc. 4 of each drug as in Table 24; for Drug sensitivity as calculated by the assay (interpretation of Drug Response Scores): Table 26
Procedure: as §1, §2, §3
as §4, with “After” for “The different cell types were each divided equally into populations, depending on the number of drugs/concentrations to be tested and plated on a cell-culture plate pre-coated with a scaffold of polycaprolactone (PCL) electrospun fibres and incubated at 37° C., 5% CO2, for 5 to (typically 10) minutes to facilitate cell attachment. After”
as §5, §6, §7, §8
Blood samples from a patient with colon cancer (sigmoid colon cancer) were received on 8 Mar. 2022 and tested using a 9 drug panel.
Chemotherapeutic agents were tested as in Table 24.

O=c1[nH]cc(F)c(=O)[nH]1 [5 FluoroUracil]
effectiveness on Circulating Tumour Cells under laboratory conditions [1]: S+ | Drug response score from blood sample, conc. 1 [1]: 0.4147 | Drug response score from blood sample, conc. 2 [1]: 0.341 | Drug response score from blood sample, conc. 3 [1]: 0.422 | Drug response score from blood sample, conc. 4 [1]: 0.08131 | effectiveness on Cancer Cells from tissue sample under laboratory conditions [2]: S+ | Drug response score, conc. 1 [2]: 0.9334 | Drug response score, conc. 2 [2]: 0.9488 | Drug response score, conc. 3 [2]: 0.9924 | Drug response score, conc. 4 [2]: 0.01222

O=c1[nH]cc(F)c(=O)[nH]1 [5FU]
Drug sensitivity as calculated by the assay, Blood [1]: S+ | Drug sensitivity as calculated by the assay, Tissue [2]: S+

CCCCCOC(=O)Nc1nc(=O)n([C@@H]2O[C@H](C)[C@@H](O)[C@H]2O)cc1F [Capecitabine]
Drug response score, conc. 1 ([3]; conc. 1: Ifos 0.125 μg/ml, Gemcit 2 μg/ml, Doxo 10 ng/ml, Etop 1 μg/ml, Metho 0.5 μg/ml, Capecit 200 μg/ml, Vinor 20 μg/ml, CTCs, t96h): 0.7820 | Drug response score, conc. 2 ([3]; conc. 2: Ifos 0.25 μg/ml, Gemcit 10 μg/ml, Doxo 30 ng/ml, Etop 4 μg/ml, Metho 1 μg/ml, Capecit 300 μg/ml, Vinor 40 μg/ml, CTCs, t96h): 0.9244 | Drug response score, conc. 3 ([3]; conc. 3: Ifos 5 μg/ml, Gemcit 20 μg/ml, Doxo 90 ng/ml, Etop 20 μg/ml, Metho 2 μg/ml, Capecit 400 μg/ml, Vinor 80 μg/ml, CTCs, t96h): 0.6113 | Drug response score, conc. 4 ([3]; conc. 4: Ifos 10 μg/ml, Gemcit 40 μg/ml, Doxo 270 ng/ml, Etop 100 μg/ml, Metho 4 μg/ml, Capecit 600 μg/ml, Vinor 200 μg/ml, CTCs, t96h): 1.0037 | effectiveness on Circulating Tumour Cells under laboratory conditions ([3]; head and neck cancer CTCs): not effective | Drug sensitivity as calculated by the assay (interpretation of Drug Response Scores) ([3]; head and neck cancer CTCs, Table 20): Resistant

Nc1nc2[nH]cc(CCc3ccc(C(=O)N[C@@H](CCC(=O)O)C(=O)O)cc3)c2c(=O)[nH]1 [Pemetrexed]
Drug response score, conc. 1 [4]: 5.1780 | Drug response score, conc. 2 [4]: −1.0000 | Drug response score, conc. 3 [4]: −1.0000 | Drug response score, conc. 4 [4]: −1.0000 | effectiveness on Circulating Tumour Cells under laboratory conditions ([4]; sigmoid colon cancer CTCs): S+++ | Drug sensitivity as calculated by the assay (interpretation of Drug Response Scores) ([4]; sigmoid colon cancer CTCs): Sensitive (S+++)

Cn1nnc2c(C(N)=O)ncn2c1=O [Temozolamide]
Drug response score, conc. 1 [4]: −1.0000 | Drug response score, conc. 2 [4]: 0.0367 | Drug response score, conc. 3 [4]: −0.1421 | Drug response score, conc. 4 [4]: −0.4687 | Drug sensitivity as calculated by the assay (interpretation of Drug Response Scores) ([4]; sigmoid colon cancer CTCs): Sensitive (S++)

Atezolizumab
effectiveness on Circulating Tumour Cells under laboratory conditions [1]: S++ | Drug response score from blood sample, conc. 1 [1]: 0.1037 | Drug response score from blood sample, conc. 2 [1]: 0.1499 | Drug response score from blood sample, conc. 3 [1]: 0.3493 | Drug response score from blood sample, conc. 4 [1]: 0.4391 | Drug sensitivity as calculated by the assay, Blood [1]: S++ | effectiveness on Cancer Cells from tissue sample under laboratory conditions [2]: S+ | Drug sensitivity as calculated by the assay, Tissue [2]: S+ | Drug response score, conc. 1 [2]: 0.8904 | Drug response score, conc. 2 [2]: 0.9047 | Drug response score, conc. 3 [2]: 0.8647 | Drug response score, conc. 4 [2]: 0.7954

Bevacizumab
Drug response score from blood sample, conc. 1 [1]: 0.4605 | Drug response score from blood sample, conc. 2 [1]: 1.257 | Drug response score from blood sample, conc. 3 [1]: 1.837 | Drug response score from blood sample, conc. 4 [1]: 2.21 | Drug response score, conc. 1 [2]: 0.93 | Drug response score, conc. 2 [2]: 0.9294 | Drug response score, conc. 3 [2]: 0.932 | Drug response score, conc. 4 [2]: 0.9261
